In patent EP2970215B1, “PYRROLIDINE DERIVATIVES, PHARMACEUTICAL COMPOSITIONS CONTAINING THEM, AND THEIR USE IN THERAPY” (AbbVie Deutschland GmbH & Co. KG, priority 2013, dated 2014) one finds Ki data, which are given here for 27 molecules.

Molecules are shown by their SMILES.

The first assay has as its target T1, human GlyT1c transporter (Homo sapiens, UniProt P48067).
T1 construct: expressed in transfected cells; host or cells: CHO cells (recombinant; line hGlyT1c_5_CHO is named for the uptake assay)
T1 sequence (P48067 1-706): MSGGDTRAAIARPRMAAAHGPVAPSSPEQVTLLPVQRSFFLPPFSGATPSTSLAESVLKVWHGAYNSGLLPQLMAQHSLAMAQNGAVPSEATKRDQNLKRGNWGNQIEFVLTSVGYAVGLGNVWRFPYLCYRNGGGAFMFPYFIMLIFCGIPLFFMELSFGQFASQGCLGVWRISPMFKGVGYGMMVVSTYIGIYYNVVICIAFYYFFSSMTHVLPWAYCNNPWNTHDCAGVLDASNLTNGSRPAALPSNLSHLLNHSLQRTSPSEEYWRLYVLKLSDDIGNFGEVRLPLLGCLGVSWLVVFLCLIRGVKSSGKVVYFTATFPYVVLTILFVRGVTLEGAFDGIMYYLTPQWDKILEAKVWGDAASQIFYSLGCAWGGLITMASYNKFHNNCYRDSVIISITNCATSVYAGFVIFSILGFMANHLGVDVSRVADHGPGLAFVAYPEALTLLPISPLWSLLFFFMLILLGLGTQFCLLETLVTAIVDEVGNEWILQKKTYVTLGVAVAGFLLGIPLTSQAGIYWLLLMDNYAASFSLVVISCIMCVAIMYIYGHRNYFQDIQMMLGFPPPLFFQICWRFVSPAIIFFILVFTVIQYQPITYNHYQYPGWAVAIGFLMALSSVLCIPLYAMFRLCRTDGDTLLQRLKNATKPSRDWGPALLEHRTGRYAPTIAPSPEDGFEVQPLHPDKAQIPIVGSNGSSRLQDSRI
Nature of the assay: Radioligand binding assay using recombinant CHO cell membranes expressing human GlyT1. As to conditions: radioligand binding to human GlyT1c transporter-expressing membranes. The source says:
2. Radioligand binding assays using recombinant CHO cell membranes expressing human GlyT1: […]
What is called Ki is the dissociation constant of the complex between target and ligand, obtained from inhibition or displacement. With `O=c1[nH]c2cc(S(=O)(=O)N3CC(Nc4ccc(F)c(F)c4)C(c4ccccc4)C3)ccc2o1` (stereo not drawn) [Example 514, 5-({3-[(3,4-difluorophenyl)amino]-4-phenylpyrrolidin-1-yl}sulfonyl)-1,3-benzoxazol-2(3H)-one], the inhibition constant (Ki) is no more than 10000 nM. For `Cn1cnc(S(=O)(=O)N2C[C@H](Nc3cc(-c4ccncc4)ccn3)[C@@H](c3ccc(F)cc3)C2)c1` [Example 751, N-{(3R,4S)-4-(4-fluorophenyl)-1-[(1-methyl-1H-imidazol-4-yl)sulfonyl]pyrrolidin-3-yl}-4,4'-bipyridin-2-amine], the Ki is no more than 100 nM. Same read-out and setting: in the case of `Cn1cnc(S(=O)(=O)N2C[C@@H](CNc3cc(Cl)cc(Cl)c3)[C@H](c3ccc(F)cc3)C2)c1` (relative stereo) [Example 292, 3,5-dichloro-N-({trans-4-(4-fluorophenyl)-1-[(1-methyl-1H-imidazol-4-yl)sulfonyl]pyrrolidin-3-yl}methyl)aniline] it was no more than 1000 nM. Consider `Cn1cnc(S(=O)(=O)N2C[C@@H](NC(=O)c3cccc(C#N)c3)[C@H](c3ccccc3)C2)c1` (relative stereo) [Example 33, 3-cyano-N-{trans-1-[(1-methyl-1H-imidazol-4-yl)sulfonyl]-4-phenylpyrrolidin-3-yl}benzamide], for which the Ki was no more than 10000 nM. Regarding `Cn1cnc(S(=O)(=O)N2C[C@@H](Nc3cc(F)cc(C(F)(F)F)c3)[C@H](c3ccccc3)C2)c1` (relative stereo) [Example 223, trans-N-[3-fluoro-5-(trifluoromethyl)phenyl]-1-[(1-methyl-1H-imidazol-4-yl)sulfonyl]-4-phenylpyrrolidin-3-amine], the Ki is no more than 100 nM. Still for that read-out and setting: as for `Cn1cnc(S(=O)(=O)N2C[C@H](Nc3cccc(F)c3)[C@@H](c3ccc(F)cc3)C2)c1` [Example 353, (3R,4S)-N-(3-fluorophenyl)-4-(4-fluorophenyl)-1-[(1-methyl-1H-imidazol-4-yl)sulfonyl]pyrrolidin-3-amine], the figure is no more than 100 nM.

As to `Cn1cnc(S(=O)(=O)N2C[C@H](NC(=O)Nc3cccc(F)c3)[C@@H](c3ccc(F)cc3)C2)c1` [Example 703, 1-(3-fluorophenyl)-3-{(3R,4S)-4-(4-fluorophenyl)-1-[(1-methyl-1H-imidazol-4-yl)sulfonyl]pyrrolidin-3-yl}urea], the Ki is no more than 1000 nM. For the molecule `Cc1cnc(CN[C@H]2CN(S(=O)(=O)c3cn(C)cn3)C[C@@H]2c2ccccc2)s1` [Example 431, (3R,4S)-1-[(1-methyl-1H-imidazol-4-yl)sulfonyl]-N-[(5-methyl-1,3-thiazol-2-yl)methyl]-4-phenylpyrrolidin-3-amine], the inhibitory constant (Ki) is no more than 10000 nM. Same read-out and setting: in the case of `CCc1oc2ccccc2c1CN[C@H]1CN(S(=O)(=O)c2cn(C)cn2)C[C@@H]1c1ccccc1` [Example 534, (3R,4S)-N-[(2-ethyl-1-benzofuran-3-yl)methyl]-1-[(1-methyl-1H-imidazol-4-yl)sulfonyl]-4-phenylpyrrolidin-3-amine] it was no more than 1000 nM; in that of `Cn1cnc(S(=O)(=O)N2C[C@@H](Nc3ccccn3)[C@H](c3ccc(F)cc3)C2)c1` (relative stereo) [Example 178, N-{trans-4-(4-fluorophenyl)-1-[(1-methyl-1H-imidazol-4-yl)sulfonyl]pyrrolidin-3-yl}pyridin-2-amine], no more than 1000 nM; in that of `Cn1cnc(S(=O)(=O)N2C[C@@H](NC(=O)c3ccc(C(F)(F)F)cc3)[C@H](c3ccc(F)cc3)C2)c1` (relative stereo) [Example 64, N-{trans-4-(4-fluorophenyl)-1-[(1-methyl-1H-imidazol-4-yl)sulfonyl]pyrrolidin-3-yl}-4-(trifluoromethyl)benzamide], no more than 100 nM. In the case of `Cc1ncc(S(=O)(=O)N2CC(Nc3ccc(F)c(F)c3)C(c3ccccc3)C2)n1C` (stereo not drawn) [Example 490, N-(3,4-difluorophenyl)-1-[(1,2-dimethyl-1H-imidazol-5-yl)sulfonyl]-4-phenylpyrrolidin-3-amine], the inhibition constant (Ki) was no more than 10000 nM. Still for that read-out and setting: in the case of `C=C(C)CO[C@@H]1CN(S(=O)(=O)c2cn(C)cn2)C[C@H]1Nc1cccc(Cl)c1` (relative stereo) [Example 403, Trans-N-(3-chlorophenyl)-1-[(1-methyl-1H-imidazol-4-yl)sulfonyl]-4-[(2-methylprop-2-en-1-yl)oxy]pyrrolidin-3-amine] it was no more than 100 nM.

Consider `Cn1cnc(S(=O)(=O)N2C[C@H](Nc3nccc(C(F)(F)F)c3F)[C@@H](c3ccc(F)cc3)C2)c1` [Example 796, 3-fluoro-N-{(3R,4S)-4-(4-fluorophenyl)-1-[(1-methyl-1H-imidazol-4-yl)sulfonyl]pyrrolidin-3-yl}-4-(trifluoromethyl)pyridin-2-amine], for which the Ki is no more than 100 nM. Same read-out and setting: as for `Cn1cnc(S(=O)(=O)N2C[C@H](NC(=O)Oc3ccccc3)[C@@H](c3ccc(F)cc3)C2)c1` [Example 693, phenyl {(3R,4S)-4-(4-fluorophenyl)-1-[(1-methyl-1H-imidazol-4-yl)sulfonyl]pyrrolidin-3-yl}carbamate], the figure is no more than 10000 nM; as for `Cc1ccccc1C(=O)N[C@@H]1CN(S(=O)(=O)c2cn(C)cn2)C[C@H]1c1ccccc1` (relative stereo) [Example 22, 2-methyl-N-{trans-1-[(1-methyl-1H-imidazol-4-yl)sulfonyl]-4-phenylpyrrolidin-3-yl}benzamide], no more than 10000 nM; as for `Cn1cnc(S(=O)(=O)N2C[C@@H](NC(=O)c3ccccc3Cl)[C@H](c3ccccc3)C2)c1` (relative stereo) [Example 14, 2-chloro-N-{trans-1-[(1-methyl-1H-imidazol-4-yl)sulfonyl]-4-phenylpyrrolidin-3-yl}benzamide], no more than 1000 nM.

With `Cn1cnc(S(=O)(=O)N2C[C@@H](Nc3cccc(Cl)c3)[C@H](Oc3ccc(F)cc3)C2)c1` (relative stereo) [Example 378, Trans-N-(3-chlorophenyl)-4-(4-fluorophenoxy)-1-[(1-methyl-1H-imidazol-4-yl)sulfonyl]pyrrolidin-3-amine], the Ki is no more than 10000 nM. Still for that read-out and setting: in the case of `Cn1cnc(S(=O)(=O)N2C[C@H](NCC3CC3c3ccccc3)[C@@H](c3ccccc3)C2)c1` (stereo partly drawn) [Example 564, (3R,4S)-1-[(1-methyl-1H-imidazol-4-yl)sulfonyl]-4-phenyl-N-[(2-phenylcyclopropyl)methyl]pyrrolidin-3-amine] it was no more than 1000 nM; in that of `Cn1cnc(S(=O)(=O)N2C[C@@H](Nc3cccc(C(F)(F)F)c3)[C@H](c3cccc(F)c3)C2)c1` (relative stereo) [Example 189, trans-4-(3-fluorophenyl)-1-[(1-methyl-1H-imidazol-4-yl)sulfonyl]-N-[3-(trifluoromethyl)phenyl]pyrrolidin-3-amine], no more than 100 nM; in that of `CCCOCCN[C@H]1CN(S(=O)(=O)c2cn(C)cn2)C[C@@H]1c1ccccc1` [Example 609, (3R,4S)-1-[(1-methyl-1H-imidazol-4-yl)sulfonyl]-4-phenyl-N-(2-propoxyethyl)pyrrolidin-3-amine], no more than 1000 nM. On the same count and under the same terms, as for `Cn1cnc(S(=O)(=O)N2C[C@H](NCc3sc(Cl)nc3Cl)[C@@H](c3ccccc3)C2)c1` [Example 435, (3R,4S)-N-[(2,4-dichloro-1,3-thiazol-5-yl)methyl]-1-[(1-methyl-1H-imidazol-4-yl)sulfonyl]-4-phenylpyrrolidin-3-amine], the figure is no more than 100 nM.

Staying with this assay, now noted: radioligand binding, recombinant CHO cell membranes expressing human GlyT1c.
For the molecule `Cn1cnc(S(=O)(=O)N2C[C@@H](Nc3cc(C(F)(F)F)c(Cl)cn3)[C@H](C3CCCCO3)C2)c1` (relative stereo) [Example 848, 5-Chloro-N-[trans-1-[(1-methyl-1H-imidazol-4-yl)sulfonyl]-4-(tetrahydro-2H-pyran-2-yl)pyrrolidin-3-yl]-4-(trifluoromethyl)pyridin-2-amine], the Ki is no more than 1000 nM. For `Cn1cnc(S(=O)(=O)N2C[C@@H](Nc3cccc(OC(F)(F)F)c3)[C@H](C3CCOC3)C2)c1` (relative stereo) [Example 835, trans-1-[(1-methyl-1H-imidazol-4-yl)sulfonyl]-4-(tetrahydrofuran-3-yl)-N-[3-(trifluoromethoxy)phenyl]pyrrolidin-3-amine], the Ki is no more than 1000 nM. Still for that read-out and setting: in the case of `CC(C)c1ccnc(N[C@H]2CN(S(=O)(=O)c3cn(C)cn3)C[C@@H]2c2ccccc2)c1` [Example 813, N-{(3R,4S)-1-[(1-methyl-1H-imidazol-4-yl)sulfonyl]-4-phenylpyrrolidin-3-yl}-4-(propan-2-yl)pyridin-2-amine] it was no more than 100 nM. Still for that read-out and setting: in the case of `Cn1cnc(S(=O)(=O)N2C[C@@H](Nc3ccc(Cl)c(C(F)(F)F)c3)[C@H](C3CCOC3)C2)c1` (relative stereo) [Example 833, trans-N-[4-chloro-3-(trifluoromethyl)phenyl]-1-[(1-methyl-1H-imidazol-4-yl)sulfonyl]-4-(tetrahydrofuran-3-yl)pyrrolidin-3-amine] it was no more than 10000 nM. On the same count and under the same terms, in the case of `Cn1cnc(S(=O)(=O)N2CC(Nc3ccc(F)c(Cl)c3)C([C@@H]3CCCO3)C2)c1` (stereo partly drawn) [Example 825, N-(3-chloro-4-fluorophenyl)-1-[(1-methyl-1H-imidazol-4-yl)sulfonyl]-4-[(2S)-tetrahydrofuran-2-yl]pyrrolidin-3-amine] it was no more than 1000 nM.
